Data on 3 molecules can be found in patent US20230240989A1, “LIPOSOMAL OZONE NANOSOLUTIONS” (priority 2021, published 2023).

“And” between values parts separate entries of the source, which are not always exact repeats. Identical values can stand only once. Like-named read-outs stand apart in the source and are kept apart here.

The test system of data set [1] is female rats of Sprague downey breed. As to conditions: skin biopsy of laparotomy incision line, group average.
From the text: A total of 72 skin biopsies of 72 animals from the abdomen were examined in the experimental groups in the applications on the wound lips on the skin line where the incision was made; Physiological Salt Water (FTS), 1% Lidocaine, ozone-free nanosolution, 250 ppm ozone nanosolution, 500 ppm ozone nanosolution, 500 ppm ozone nanosolution+2% Lidocaine (50% blend), 1000 ppm Ozone nanosolution+2% Lidocaine (50% blend) and 2000 ppm ozone nanosolution+2% Lidocaine (50% blend). Lesions were scored and group average scores were obtained.
Data set [2] has as its system BALB/c 3T3 (CCL-163) cell line. The conditions noted are these: mouse, 48 h.
Data set [3] has as its system L-929 mouse fibroblast cell line. The conditions noted are these: 48 h.
Data set [4] deals with back skin of New Zealand albino rabbits. The data set can be described thus: Skin irritation test TS EN ISO 10993-10 (barrier solution). The text has this: Three healthy young New Zealand albino rabbits with a body weight of 2-3 kg were used as experimental animals.
Test material given under the title of TS EN ISO 10993-10:2010 annex A A.2,2 Liquid test materials; Liquids were applied without dilution or by direct precipitation or, if not applicable, at a dose of 1600 ppm, which is the usage dose according to the guideline. […] The sponge impregnated with the nanosolution of the invention was kept in direct contact with the sample application areas. SLS impregnated sponge was applied to the positive control area. The samples were covered with gauze, fixed with a bandage, and topically contacted with the back skin for 4 hours. The primary irritation index was determined by evaluating the application areas (1±0.1) […], and (72±2) hours after the 4th hour application, according to the skin reaction score given in Chart 1. As stated in the standard, the 1st hour was not included in the calculation.

Data set [5] shares this test system. The data set can be described thus: Irritation test TS EN ISO 10993-10 (injection solution). The format is in vivo, rabbit. The conditions noted are these: for Primary irritation score (score average): 24th-72nd hour, 1st hour not included.
From the text: Test material given under the title of TS EN ISO 10993-10:2010 annex A A.2,2 Liquid test materials; Liquids should be tested without dilution or by direct precipitation or, if not applicable, by diluting with physiological saline to ¼ dose, which is the usage dose in accordance with the directive that it should be tested by diluting with a suitable liquid.
Sodium lauryl sulphate (SLS) was used as a positive control and distilled water was used as a negative control.
SLS-impregnated sponge was applied to the positive control area (area no 3). The samples were covered with gauze, fixed with a bandage, and topically contacted with the back skin for 4 hours.
The primary irritation index was determined by evaluating the application areas (1±0.1) s, (24±2) s, (48±2) s, and (72±2) hours after the 4th hour application, according to the skin reaction score given in Chart 1. As stated in the standard, the 1st hour was not included in the calculation.
Another data set relates to albino guinea pigs. The data set can be described thus: Sensitization test, Closed Patch-Buehler method. As to conditions: per animal.
Data set [6] concerns inner cheek pouch of Syrian hamsters. The data set can be described thus: Oral mucosal irritation test. As for the experimental part:
Oral mucosal irritation test was carried out considering the TS EN ISO 10993-10:2010 standard, the experimental animal used in the test is considered according to TS EN ISO 10993-2:2006 standard, the material preparation is made according to TS EN ISO 10993-12:2012 standard guidelines. The test is performed for materials intended to come into contact with oral tissue and where safety data cannot be obtained by other means.
Animals were acclimated to the environment by taking care of them as specified in TS EN ISO 10993-2:2006. Healthy young adult Syrian hamsters of both sexes, unrelated to a single strain, were used for testing. Product sample-impregnated gauze was placed in the inner cheek pouch of each animal under ketamine/Xylazine anesthesia. The exposure time was evaluated according to the rule of reflecting the actual expected use time of the material, and the sample was kept in the inner cheek pouch for 1 hour.
Test material given under the title of ISO 10993-10:2010 annex A A.2,2 Liquid test materials; Liquids were applied without dilution or by direct precipitation or, if not applicable, at a dose of 1600 ppm, which is the usage dose according to the guideline. Saline solution-impregnated absorbent gauze was used as negative control. As a positive control, HCl acid solution adjusted to pH 1.5 was used in our laboratory based on the rule that liquids with pH 2 and below are considered irritating.
The left inner cheek pouch of each animal was evaluated for the experimental sample, and the contralateral (Right) inner cheek was considered as the negative control. No material was placed into the right side inner cheek pouch, it was only washed with physiological saline and dissected at the end of the experiment.
Gauze cloth impregnated with a usage dose of 1600 ppm of the nanosolution of the invention was placed in the left inner cheek pouch of Syrian hamsters under ketamine/Xylazine anesthesia, whose inner cheeks were emptied and washed with saline. After the exposure of the subject to the sample for 1 hour, the sample was removed and the inner cheek was rinsed with saline solution, taking care not to contaminate the other cheek. Experiment (left) and control (right) inner cheek pouches were evaluated macroscopically according to chart 1. The experiment was terminated after 1 hour of contact.
According to the standard directive, the exposure time should reflect the actual expected use time of the material, but should not be less than 5 minutes. The repeated observation rating (Table 1) performed at long-term chronic exposures is summed up and divided by the total repeat application 4. Since it is a device with subacute use, the application was performed 4 times with one hour intervals. Observations of the sample applied left inner cheek were compared with the right inner cheeks (negative control) washed with saline.

The mark [7] stands for this setting: left cheek (experiment), single subject.

Consider `CCN(CC)CC(=O)Nc1c(C)cccc1C` [1% lidocaine], for which the “Collagen Epidermis/Dermis (%)” value in data set [1] was 25.33 ± 2.46%. In data set [1] (scoring out of 3), the Bleeding score came to 0.83 ± 0.54, the Connective tissue score stood at 2.67 ± 0.33, the Edema score worked out at 0.67 ± 0.33 and the Inflammation score amounted to 2.50 ± 0.34. This molecule also yielded a Vascular formation score in data set [1] (scoring out of 3) of 1.83 ± 0.17.
For the molecule `C[S+](C)[O-]` [PC, Dimethylsulfoxide], the Vitality % in data set [2] (3 % v/v) was determined as 31.25%; in data set [2] (10 % v/v), 24.37%; in data set [3] (10 % v/v), 53.44%; in data set [3] (30 % v/v), 36.46%. The “Optical density (OD) mean value 570 nm ± standard deviation (SD)” value in data set [2] (10 % v/v) is 0.1 ± 0.06; in data set [2] (30 % v/v), 0.078 ± 0.02.
Regarding `CCCCCCCCCCCCOS(=O)(=O)[O-].[Na+]` [Positive control, Sodium lauryl sulphate], the “Primary Irritation Score Rabbit 1” value in data set [4] (24th, 48th, 72nd hours) was found to be 2.167 ± 1.169. Moreover, in data set [4] (24th, 48th, 72nd hours), the “Primary Irritation Score Rabbit 2” value is reported as 1.333 ± 1.2. In addition, the “Primary Irritation Score Rabbit 3” value in data set [4] (24th, 48th, 72nd hours) was 1.500 ± 1.049. In addition, the “Primary Irritation Index” value in data set [4] (three rabbits) and in data set [5] (mean of three rabbits) was 1.666 throughout. Also, the “Primary irritation score (score average)” value in data set [5] (Rabbit 1) was determined as 2.167 ± 1.169; in data set [5] (Rabbit 2) it was 1.333 ± 1.211; in data set [5] (Rabbit 3), 1.500 ± 1.049. Moreover, the “Magnusson and Kligman Rating” value was 2 with albino guinea pigs (24th hour after stimulation, 2020 Oct. 27); 2 in the data set on albino guinea pigs (48th hour after stimulation, 2020 Oct. 28); 1 with albino guinea pigs (Induction first week, application date 2020 Sep. 24, 6 h closed patch); 1 in the data set on albino guinea pigs (Induction first week, application date 2020 Sep. 26, 6 h closed patch); 1 in the data set with albino guinea pigs (Induction first week, application date 2020 Sep. 28, 6 h closed patch); 2 (3×) and 1 (2×) in the data set with albino guinea pigs (Induction, application date 2020 Oct. 2, 6 h closed patch, sulphate). The “Magnusson and Kligman Rating” value with albino guinea pigs (Induction, application date 2020 Oct. 4, 6 h closed patch) was 2; in the data set on albino guinea pigs (Induction, application date 2020 Oct. 7, 6 h closed patch), 2; in the data set on albino guinea pigs (Induction, application date 2020 Oct. 9, 6 h closed patch, sulphate), 2 (4×) and 3; with albino guinea pigs (Induction, application date 2020 Oct. 12, 6 h closed patch, sulphate), 3 (4×) and 2; with albino guinea pigs (Induction, application date 2020 Sep. 31, 6 h closed patch, sulphate) it was 1 (4×) and 2; in the data set on albino guinea pigs (Stimulation application, 2020 Oct. 26, sulphate), 2 (4×) and 3. The “macroscopic examination of inner cheek mucosa” value in data set [6] (hamster, in vivo) is listed as “Areas of mucosal erosion were noted”. Moreover, the “Microscopic irritation score Edema” value in data set [6] (setting [7]) is 0. Further, the “Microscopic irritation score Epithelium” value in data set [6] (setting [7]) is 3. In data set [6] (setting [7]), the “Microscopic irritation score Leukocyte infiltration” value is listed as 2 (Mild (26 to 50)). In data set [6] (setting [7]), the “Microscopic irritation score Vascular congestion” value is given as 1.
